Measured values taken from US4215143A (Mitsui Toatsu Chemicals, Incorporated, priority 1978, dated 1980).

Columns and labels:
pepsin = assay: Effect on pepsin activity in pylorus-ligated rats (Anson's method); assay type: in vivo, Male rats of the Donryu strain; conditions: 250 mg/kg, p.o.; 4 hours; control 7.4 ± 0.5; ** significant vs control at the 1% level
Experimental: (§1) Male rats of the Donryu strain, 11 weeks of age, were used in groups of ten. After 24 hours of fasting, the pylorus was ligated. Four hours later, the gastric juice was collected and its volume was measured. Then, its acidity was determined by titrating an aliquot of the gastric juice with 0.05 N sodium hydroxide. Further, the activity of pepsin was determined by Anson's method. A definite amount (250 mg/kg) of a compound to be tested was orally administered immediately after the ligation of the pylorus.

Gastric Juice Acidity = assay: Effect on gastric juice acidity in pylorus-ligated rats; assay type: in vivo, Male rats of the Donryu strain; conditions: 250 mg/kg, p.o.; 4 hours; control 92.5 ± 3.7; * significant vs control at the 5% level
Experimental: as §1

Gastric Juice Secretion = assay: Effect on gastric juice secretion in pylorus-ligated rats; assay type: in vivo, Male rats of the Donryu strain; conditions: 250 mg/kg, p.o.; 4 hours; control 4.9 ± 0.4; * significant vs control at the 5% level
Experimental: as §1

Aspirin Ulcer = assay: Aspirin Ulcer, anti-ulcer effect; assay type: in vivo, Male rats of the Donryu strain; conditions: p.o., aspirin 250 mg/kg oral, 6 hours
Experimental: (§2) The anti-ulcer effect of some compounds of this invention was evaluated with regard to various types of experimental gastric and duodenal ulcers. The method of evaluation for each type of ulcer is outlined below.
Male rats of the Donryu strain, 10 or 11 weeks of age, were used in groups of ten. After 24 hours of fasting, a certain amount of a compound to be tested was orally administered to each animal of a group. Ten minutes later, aspirin was orally administered in a dose of 250 mg/kg. After 6 hours, the size of the ulcer formed in the glandular part of the stomach was rated by visual inspection and regarded as an ulcer index (U.I.). The results are also expressed in terms of the percentage of inhibition based on the U.I. obtained in the control group receiving no compounds to be tested.

Shay's Ulcer = Shay's Ulcer (pylorus ligation), anti-ulcer effect; assay type: in vivo, Male rats of the Wistar strain; conditions: p.o., 12 hours, vs control group
Experimental: The anti-ulcer effect of some compounds of this invention was evaluated with regard to various types of experimental gastric and duodenal ulcers. The method of evaluation for each type of ulcer is outlined below. Male rats of the Wistar strain, 7 or 8 weeks of age, were used in groups of ten. After 48 hours of fasting, the pyloric part of the stomach was ligated under ether anesthesia. Immediately after the operation, a certain amount of a compound to be tested was orally administered to each animal of a group. After 12 hours, the degree of ulceration occurring in the anterior part of the stomach was rated and regarded as an ulcer index (U.I.). Control rats were treated in the same manner as described above, except that they received no compounds to be tested. The results given in Table 1 are expressed in terms of the percentage of inhibition based on the U.I. obtained in the control group.

Acetic Acid Ulcer = assay: Acetic Acid Ulcer, healing promotion effect; assay type: in vivo, Male rats of the Wistar strain; conditions: p.o., twice a day for 7 days
Experimental: as §2
Male rats of the Wistar strain, 6 weeks of age, were used in groups of ten. Under ether anesthesia, each animal was laparotomized, a round frame (with an inside diameter of 5 mm) made of stainless steel was applied to the anterior wall of the stomach, and 100% acetic acid was poured into the frame. After 30 seconds, the acetic acid was removed and the abdomen was closed. Starting on the 7th day after the operation, a certain amount of a compound to be tested was orally administered twice a day to each animal of a group for a period of 7 days. Thereafter, the degree of healing of the ulcer was rated by visual insepction and regarded as an ulcer index (U.I.). The results are also expressed in terms of the percentage of healing based on the U.I. obtained in the control group receiving no compounds to be tested.

Stress Ulcer = Stress Ulcer (water immersion restraint), anti-ulcer effect; assay type: in vivo, Male rats of the Wistar strain; conditions: 250 mg/kg, p.o.; stress for 16 hours; vs control group
Experimental: The anti-ulcer effect of some compounds of this invention was evaluated with regard to various types of experimental gastric and duodenal ulcers. The method of evaluation for each type of ulcer is outlined below. Male rats of the Wistar strain, 8 weeks of age, were used in groups of ten. Each animal was immobilized in a stressing cage as developed by Takagi et al., immersed in water at 23° C. to the level of the xiphoid process, and thereby subjected to stress for 16 hours. Thereafter, the stomach was excised. The length of the ulcer formed in the glandular part of the stomach was measured and regarded as an ulcer index (U.I.). A certain amount of a compound to be tested was orally administered just before subjecting the animal to stress. The results are also expressed in terms of the percentage of inhibition based on the U.I. obtained in the control group receiving no compounds to be tested.

| Substance | Activity of Pepsin (pepsin) | Acidity of Gastric Juice (Gastric Juice Acidity) | Amount of Gastric Juice Secreted (Gastric Juice Secretion) | percentage of inhibition (ulcer index, Aspirin Ulcer) (Aspirin Ulcer; 100 mg/kg) | percentage of inhibition (ulcer index, Aspirin Ulcer) (Aspirin Ulcer; 250 mg/kg) | percentage of inhibition (ulcer index, Shay's Ulcer) (Shay's Ulcer; 100 mg/kg) | percentage of inhibition (ulcer index, Shay's Ulcer) (Shay's Ulcer; 250 mg/kg) | percentage of healing (ulcer index, Acetic Acid Ulcer) (Acetic Acid Ulcer; 100 mg/kg) | percentage of healing (ulcer index, Acetic Acid Ulcer) (Acetic Acid Ulcer; 250 mg/kg) | percentage of inhibition (ulcer index, Stress Ulcer) (Stress Ulcer) |
| --- | --- | --- | --- | --- | --- | --- | --- | --- | --- | --- |
| inositol hexasulfate aluminum salt | 4.8 ± 0.4 mg/mL | 57.8 ± 12.9 mEq/l | 3.6 ± 0.4 mL |  |  |  |  |  |  |  |
| inositol hexasulfate sodium aluminum salt | 5.1 ± 0.5 mg/mL | 61.1 ± 11.4 mEq/l | 3.6 ± 0.4 mL | 42 percentage | 49 percentage | 87 percentage | 90 percentage | 23 percentage | 28 percentage | 30 percentage |
